# Measurements taken from patent US9549946B2, “Materials and methods for preventing and treating microbe-mediated epithelial disorders” (priority 2002, dated 2017).
# Tested on: human intestinal epithelial cells
# Assay: Epithelial transport function (Na+/H+ exchange, glucose transport)
# Assay type: cell-based
# Source text: The resistance of PEG-cultured human intestinal epithelial cells to the barrier-disrupting effects of P. aeruginosa, as judged by the maintenance of TEER, offers a practical approach to stabilizing tight junctional barrier function in the face of a challenge from invading pathogens. Further evidence of the therapeutic value of PEG 15-20 is that epithelial transport function (Na^+/H^+ exchange, glucose transport) is unaffected by this compound.
substance,measurement,value
polyethylene glycol [PEG 15-20],"epithelial transport function (Na+/H+ exchange, glucose transport)",unaffected
